# Measurements published in ChEMBL document CHEMBL1201862, “PubChem BioAssay data set” (2004).
# Activity calls are given as the source filed them.
# Columns and labels:
# INS1 = experiment: INS-1E survival protection against cytokine death – cell-based, luminescence, retest, dose response (AID 449756); assay type: functional; conditions: Rattus norvegicus;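 also: cell death triggered by IL-1 beta plus TNF-alpha plus IFN-gamma mixture; protective hits raise ATP signal compared with cytokine alone wells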
# [1] = viability of uninfected HEp-2 cells – cell-based, HTS, cytotoxicity control for RSV inhibitor project, dose response (AID 2410); assay type: functional; conditions: human respiratory syncytial virus
# [2] = target: T1, Replicative DNA helicase DnaB (Mycobacterium tuberculosis, UniProt P9WMR3); experiment: DnaB intein splicing inhibitors, dose response, biochemical, cell-free fluorescence (AID 449749); assay type: functional
# T1 sequence (P9WMR3 whole entry): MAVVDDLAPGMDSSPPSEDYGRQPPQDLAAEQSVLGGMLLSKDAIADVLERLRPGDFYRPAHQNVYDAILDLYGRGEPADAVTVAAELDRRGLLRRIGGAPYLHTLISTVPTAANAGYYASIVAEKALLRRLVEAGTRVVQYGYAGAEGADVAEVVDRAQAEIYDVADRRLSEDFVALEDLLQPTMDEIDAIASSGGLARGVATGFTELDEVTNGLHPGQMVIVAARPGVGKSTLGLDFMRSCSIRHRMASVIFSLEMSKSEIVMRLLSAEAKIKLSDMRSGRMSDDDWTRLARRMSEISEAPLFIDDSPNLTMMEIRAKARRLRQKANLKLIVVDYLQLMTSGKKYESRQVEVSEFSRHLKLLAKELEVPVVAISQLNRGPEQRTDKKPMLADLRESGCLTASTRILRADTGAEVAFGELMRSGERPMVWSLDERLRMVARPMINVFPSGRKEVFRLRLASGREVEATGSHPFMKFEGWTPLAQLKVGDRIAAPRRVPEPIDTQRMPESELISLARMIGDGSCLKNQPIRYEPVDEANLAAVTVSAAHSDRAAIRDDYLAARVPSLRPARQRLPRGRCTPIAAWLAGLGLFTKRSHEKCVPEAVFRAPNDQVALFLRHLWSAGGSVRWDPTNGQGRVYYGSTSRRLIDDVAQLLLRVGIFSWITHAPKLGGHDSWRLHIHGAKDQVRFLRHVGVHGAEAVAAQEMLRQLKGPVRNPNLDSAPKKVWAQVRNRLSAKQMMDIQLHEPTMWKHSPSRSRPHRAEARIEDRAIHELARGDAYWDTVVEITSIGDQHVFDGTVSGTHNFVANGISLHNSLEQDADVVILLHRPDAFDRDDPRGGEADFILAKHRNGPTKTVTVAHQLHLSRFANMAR
# Protein RecA = target: T2, Protein RecA (Mycobacterium tuberculosis, UniProt P9WHJ3); experiment: Fluorescence Cell-Free Homogeneous Dose Retest to Identify Inhibitors of RecA-Intein Splicing Activity. [Related pubchem assays (depositor defined):AID2097, AID2223, AID489010, AID492950]; assay type: functional
# T2 sequence (P9WHJ3 whole entry): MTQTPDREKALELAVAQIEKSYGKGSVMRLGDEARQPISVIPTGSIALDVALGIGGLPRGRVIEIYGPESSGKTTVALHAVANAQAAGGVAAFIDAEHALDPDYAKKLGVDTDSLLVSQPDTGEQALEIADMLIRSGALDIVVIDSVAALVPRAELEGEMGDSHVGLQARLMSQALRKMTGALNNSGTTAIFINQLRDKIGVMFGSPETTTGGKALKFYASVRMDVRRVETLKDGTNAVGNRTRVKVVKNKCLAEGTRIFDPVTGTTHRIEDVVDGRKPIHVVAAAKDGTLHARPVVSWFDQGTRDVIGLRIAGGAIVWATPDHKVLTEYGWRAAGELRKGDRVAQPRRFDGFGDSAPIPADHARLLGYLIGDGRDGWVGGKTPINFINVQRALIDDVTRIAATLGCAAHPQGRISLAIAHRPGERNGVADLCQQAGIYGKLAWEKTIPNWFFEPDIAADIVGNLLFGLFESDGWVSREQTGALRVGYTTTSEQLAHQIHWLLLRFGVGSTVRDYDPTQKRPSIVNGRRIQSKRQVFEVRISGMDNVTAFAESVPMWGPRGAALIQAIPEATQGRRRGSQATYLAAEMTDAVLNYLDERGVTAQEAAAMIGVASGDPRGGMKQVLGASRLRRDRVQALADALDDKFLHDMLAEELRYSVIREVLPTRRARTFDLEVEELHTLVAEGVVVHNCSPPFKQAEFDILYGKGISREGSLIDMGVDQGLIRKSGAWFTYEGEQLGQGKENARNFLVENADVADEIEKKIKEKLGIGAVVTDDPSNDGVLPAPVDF
# [3] = NIH-3T3 fibroblast cytotoxicity, dose response, cytotoxicity control, cell-based, fluorescence, Alamar Blue, secondary assay (AID 2327); assay type: functional;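 also: NIH-3T3 mouse fibroblasts cultured with fluconazole at 8 µg/mL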
# [4] = target: T3, Heat shock factor protein 1 (Mus musculus, UniProt P38532); experiment: decrease of HSF1-responsive luciferase luminescence – cell-based, NIH3T3, dose retest, confirmation (AID 2382); assay type: functional;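 also: NIH3T3 fibroblasts with HSF1-driven luciferase reporter stressed by proteasome inhibitor MG132; luminescence from HSF1-driven luciferase expression after 8 hours of MG132 stress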
# T3 sequence (P38532 whole entry): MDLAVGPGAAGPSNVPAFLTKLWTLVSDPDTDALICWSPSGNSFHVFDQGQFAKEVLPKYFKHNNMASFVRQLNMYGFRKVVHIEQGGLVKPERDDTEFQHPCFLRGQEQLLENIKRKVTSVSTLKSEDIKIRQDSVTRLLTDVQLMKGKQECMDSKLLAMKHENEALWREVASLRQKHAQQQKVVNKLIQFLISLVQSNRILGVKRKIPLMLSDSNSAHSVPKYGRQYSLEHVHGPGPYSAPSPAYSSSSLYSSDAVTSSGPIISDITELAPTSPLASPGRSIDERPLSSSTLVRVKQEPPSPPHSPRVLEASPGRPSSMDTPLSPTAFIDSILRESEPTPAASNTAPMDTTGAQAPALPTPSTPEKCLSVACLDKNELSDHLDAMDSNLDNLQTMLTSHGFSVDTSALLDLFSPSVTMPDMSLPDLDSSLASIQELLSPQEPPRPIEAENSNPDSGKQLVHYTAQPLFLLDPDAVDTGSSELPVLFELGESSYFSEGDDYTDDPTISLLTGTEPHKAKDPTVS
# Cytochrome P450 3A4 = Cytochrome P450 3A4 (Homo sapiens, UniProt P08684);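 also: CYP3A4 tested as one member of a cytochrome P450 panel screen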
# [5] = tested on: Streptococcus sp. 'group A'; experiment: Streptococcus pyogenes SK(-)GAS viability under kanamycin – luminescence, BacTiterGlo, confirmation, counter-screen for streptokinase expression inhibitor project, dose response (AID 1900); assay type: functional, organism-based
# Streptokinase A = target: T4, Streptokinase A (Streptococcus pyogenes serotype M1, UniProt P10520); experiment: viability-normalized secreted streptokinase activity reduction – plasminogen activation absorbance, OD405, dose response (AID 1914); assay type: functional, Streptococcus pyogenes M1 GAS;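 also: secreted streptokinase activity via plasminogen activation per viability signal from cell pellet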
# T4 sequence (P10520 whole entry): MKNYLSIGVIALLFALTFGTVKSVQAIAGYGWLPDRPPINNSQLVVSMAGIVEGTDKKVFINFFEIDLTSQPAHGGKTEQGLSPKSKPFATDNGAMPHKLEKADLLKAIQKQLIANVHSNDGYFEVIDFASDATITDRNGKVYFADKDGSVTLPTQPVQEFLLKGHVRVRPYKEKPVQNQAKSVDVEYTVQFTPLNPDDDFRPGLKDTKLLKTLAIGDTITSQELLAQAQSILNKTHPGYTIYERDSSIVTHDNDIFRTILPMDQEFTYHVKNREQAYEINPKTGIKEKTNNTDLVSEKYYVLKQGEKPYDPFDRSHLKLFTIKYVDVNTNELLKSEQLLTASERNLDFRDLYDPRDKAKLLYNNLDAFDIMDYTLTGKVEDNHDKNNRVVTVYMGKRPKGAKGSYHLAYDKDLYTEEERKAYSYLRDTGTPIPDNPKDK
# Streptococcus = experiment: GAS UMAA2166 growth inhibition – luminescence, BacTiterGlo, counter-screen for streptokinase expression inhibitor project, dose response (AID 1915); assay type: functional, organism-based;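 also: potency for reduction of bacterial viability or growth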
# [6] = target: T5, RNA-binding protein pos-1 (Caenorhabditis elegans, UniProt G5EF15); experiment: disruptors of C. elegans POS-1 RNA interaction – biochemical, fluorescence polarization, dose response (AID 1964);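 also: purified POS-1 fused to maltose binding protein made in E. coli; potency of compounds blocking POS-1 binding to fluorescent RNA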
# T5 sequence (G5EF15 whole entry): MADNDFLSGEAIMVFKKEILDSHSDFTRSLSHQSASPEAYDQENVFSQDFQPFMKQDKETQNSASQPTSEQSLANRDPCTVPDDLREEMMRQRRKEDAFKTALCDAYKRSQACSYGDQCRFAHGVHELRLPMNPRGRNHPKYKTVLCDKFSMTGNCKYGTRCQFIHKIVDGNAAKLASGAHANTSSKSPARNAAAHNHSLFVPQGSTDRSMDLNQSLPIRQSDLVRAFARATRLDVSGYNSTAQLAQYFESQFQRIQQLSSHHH
# [7] = Luminescence Cell-Based Dose Response HTS to Identify Activators of Luciferase Translation or Activity in H4 […] Cells. [Related pubchem assays: 1829 (Project Summary), 1814 (Primary HTS)]; assay type: functional
# H4 = experiment: Luminescence Cell-Based Dose Response HTS to Identify Activators of 5'UTR Stem-Loop Driven Prion Protein mRNA Translation in H4 Neuroglioblastoma Cells. [Related pubchem assays: 1829 (Project Summary), 1814 (Primary HTS)]; assay type: functional; conditions: Homo sapiens
# [8] = non-specific 3'UTR reporter inhibition in Clone20-Shn3RL – cell-based, Renilla luciferase, cherry-picked, counter-screen for Shn3 inhibitor project, dose response (AID 624133); assay type: functional
# Cytochrome P450 3A4, sequence (P08684 whole entry): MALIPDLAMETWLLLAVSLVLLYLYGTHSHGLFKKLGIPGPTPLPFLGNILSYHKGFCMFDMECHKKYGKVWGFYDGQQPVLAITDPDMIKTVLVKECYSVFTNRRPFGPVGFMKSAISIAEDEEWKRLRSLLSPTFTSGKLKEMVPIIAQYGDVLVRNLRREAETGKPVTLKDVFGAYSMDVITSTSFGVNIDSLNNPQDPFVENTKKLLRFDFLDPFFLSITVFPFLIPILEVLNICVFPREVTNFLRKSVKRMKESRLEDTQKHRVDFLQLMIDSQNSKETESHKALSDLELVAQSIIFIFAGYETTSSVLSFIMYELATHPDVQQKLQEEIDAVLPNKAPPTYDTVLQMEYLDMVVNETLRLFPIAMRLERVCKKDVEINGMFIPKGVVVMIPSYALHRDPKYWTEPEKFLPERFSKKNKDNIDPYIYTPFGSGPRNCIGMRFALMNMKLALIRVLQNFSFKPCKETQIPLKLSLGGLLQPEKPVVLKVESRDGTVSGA
structure (smiles),measurement,setting,value
C=C(C)C(=O)N1CC2(CC(c3cccc(NC(=O)COc4ccc(Cl)cc4)c3)=NO2)C[C@@H]1C(N)=O (stereo not given in full),AC50,INS1,9.67 µM (active)
CCc1ccc(Nc2nnc(SCc3cc(=O)n4ccsc4n3)s2)cc1,CC50,[1],26.4 µM (active)
CN(CC(=O)Nc1ccc(N2CCOCC2)cc1)CC(=O)Nc1cccc(C#N)c1,AC50,[2],199 µM (active)
same,EC50,Protein RecA,> 380 µM (inactive)
CC(O)CNc1nc2sc3c(c2c(=O)n1Cc1ccco1)CCCCC3 (stereo not given),AC50,INS1,45 µM (active)
CCc1ccc(OC)c(S(=O)(=O)Nc2ccc(Cc3ccncc3)cc2)c1,AC50,INS1,3.7 µM (active)
c1ccc(-c2ccc(C3=Nn4c(nnc4-c4cccs4)SC3)cc2)cc1,CC50,[1],16.6 µM (active)
O=S(=O)(c1cccs1)N1CCN(CC(O)COc2cc(Cl)ccc2Cl)CC1 (stereo not given),AC50,INS1,5.11 µM (active)
O=C(CSC1=NCCS1)Nc1ccc(S(=O)(=O)NC2CCCCC2)cc1,EC50,Protein RecA,13.3 µM (active)
CN(c1ccccc1)S(=O)(=O)c1cccc(NC(=O)c2cccc(C#N)c2)c1,CC50,[1],16.1 µM (active)
Cc1ccc(S(=O)(=O)N2CCN(C(=O)c3ccc(N4CCCCC4)c([N+](=O)[O-])c3)CC2)cc1,CC50,[1],> 50 µM (active)
Cc1cc(NC(=O)COC(=O)[C@@H](NS(=O)(=O)c2ccc(Br)cc2)C(C)C)no1,EC50,[3],> 150 µM (inactive)
CC1(C)CC(NCc2ccc3c(c2)OCO3)CCO1 (stereo not given),EC50,[4],> 195 µM (not active)
same,AC50,Cytochrome P450 3A4,17.8 µM (inconclusive)
COC(=O)CC1=NN(c2ccccc2)C(=O)C1,AC50,[2],13.2 µM (active)
same,EC50,Protein RecA,4.42 µM (active)
CN1C(=O)N(C)c2cccc3cccc1c23,CC50,[1],22.5 µM (active)
CCc1cc(C(=O)c2ccc(C)cc2)c(NC(=O)CCl)s1,AC50,[2],3.98 µM (active)
same,EC50,Protein RecA,1.07 µM (active)
Cc1ccc(C2C(C#N)=C(N)Oc3[nH]nc(-c4cccnc4)c32)o1 (stereo not given),AC50,[2],25.6 µM (active)
same,EC50,Protein RecA,6.46 µM (active)
O=S(=O)(c1ccccc1F)N1CCC(c2nc(O)c3nnn(Cc4ccc(F)cc4)c3n2)CC1,CC50,[1],27 µM (active)
O=C1CCSc2ccc(Cl)cc2N1Cc1ccc(Cl)cc1,CC50,[1],23.4 µM (active)
same,EC50,[5],7.8 µM (active)
same,EC50,Streptokinase A,18.4 µM (active)
same,EC50,Streptococcus,49.5 µM (active)
COc1ccc(N2C(=O)NC(=O)/C(=C\c3cn(C)c4ccccc34)C2=O)cc1,EC50,[6],1.05 µM (active)
Cc1ccc([N+](=O)[O-])cc1S(=O)(=O)N(C(=O)c1ccncc1)c1ccc2oc3c(c2c1)CCCC3,AC50,[2],42 µM (active)
same,EC50,Protein RecA,10.8 µM (active)
CC(=O)Nc1ccc(NC(=O)CSc2ccc3nnc(CCNS(=O)(=O)c4ccc(C)cc4)n3n2)cc1,EC50,[3],> 160 µM (inactive)
CCSC1=NC(/C=C/c2ccc(Cl)cc2Cl)=CC(C)(C)N1,CC50,[1],18 µM (active)
Cc1nn(Cc2ccccc2)c2c1C(c1ccccc1)C(C#N)=C(N)O2 (stereo not given),AC50,[2],8.53 µM (active)
same,EC50,Protein RecA,3.64 µM (active)
Cc1ccc(C)c(N2CCN(S(=O)(=O)c3ccc(-c4cc(C)no4)s3)CC2)c1,CC50,[1],> 50 µM (active)
Cn1nc(C(F)(F)F)c2cc(C(=O)Nc3ccc(Cl)cc3)sc21,CC50,[1],21.4 µM (active)
COC(=O)Cc1n[nH]c2c1C(c1ccc(O)c(OC)c1)C(C#N)=C(N)O2 (stereo not given),AC50,[2],7.51 µM (inconclusive)
same,EC50,Protein RecA,2.88 µM (active)
O=C(CNC(=O)c1ccc(F)cc1)c1ccc(Cl)cc1,EC50,[7],0.717 µM (active)
same,EC50,H4,79 µM (active)
O=C(CSc1nc2cc(Cl)c[nH]c-2n1)N1CCOCC1,AC50,[8],32.3 µM (active)
C=CC/N=C1/S/C(=C/c2cccc([N+](=O)[O-])c2)C(=O)N1CC=C,CC50,[1],28 µM (active)
CCOc1ccc(C(=O)N/N=C(\c2ccccc2)c2ccccn2)cc1,EC50,[5],4.25 µM (active)
same,EC50,Streptokinase A,> 150 µM (not active)
same,EC50,Streptococcus,11.8 µM (active)
same,AC50,INS1,1.19 µM (active)
